Among the data in patent US9505767B2, “Pyrazolo[1,5-A]pyrimidin-7(4H)-onehistone demethylase inhibitors” (Genentech, Inc., priority 2013, dated 2016) are IC50 values, retold here.

Each structure is given as a SMILES string.

T1 sequence (P29375 whole entry): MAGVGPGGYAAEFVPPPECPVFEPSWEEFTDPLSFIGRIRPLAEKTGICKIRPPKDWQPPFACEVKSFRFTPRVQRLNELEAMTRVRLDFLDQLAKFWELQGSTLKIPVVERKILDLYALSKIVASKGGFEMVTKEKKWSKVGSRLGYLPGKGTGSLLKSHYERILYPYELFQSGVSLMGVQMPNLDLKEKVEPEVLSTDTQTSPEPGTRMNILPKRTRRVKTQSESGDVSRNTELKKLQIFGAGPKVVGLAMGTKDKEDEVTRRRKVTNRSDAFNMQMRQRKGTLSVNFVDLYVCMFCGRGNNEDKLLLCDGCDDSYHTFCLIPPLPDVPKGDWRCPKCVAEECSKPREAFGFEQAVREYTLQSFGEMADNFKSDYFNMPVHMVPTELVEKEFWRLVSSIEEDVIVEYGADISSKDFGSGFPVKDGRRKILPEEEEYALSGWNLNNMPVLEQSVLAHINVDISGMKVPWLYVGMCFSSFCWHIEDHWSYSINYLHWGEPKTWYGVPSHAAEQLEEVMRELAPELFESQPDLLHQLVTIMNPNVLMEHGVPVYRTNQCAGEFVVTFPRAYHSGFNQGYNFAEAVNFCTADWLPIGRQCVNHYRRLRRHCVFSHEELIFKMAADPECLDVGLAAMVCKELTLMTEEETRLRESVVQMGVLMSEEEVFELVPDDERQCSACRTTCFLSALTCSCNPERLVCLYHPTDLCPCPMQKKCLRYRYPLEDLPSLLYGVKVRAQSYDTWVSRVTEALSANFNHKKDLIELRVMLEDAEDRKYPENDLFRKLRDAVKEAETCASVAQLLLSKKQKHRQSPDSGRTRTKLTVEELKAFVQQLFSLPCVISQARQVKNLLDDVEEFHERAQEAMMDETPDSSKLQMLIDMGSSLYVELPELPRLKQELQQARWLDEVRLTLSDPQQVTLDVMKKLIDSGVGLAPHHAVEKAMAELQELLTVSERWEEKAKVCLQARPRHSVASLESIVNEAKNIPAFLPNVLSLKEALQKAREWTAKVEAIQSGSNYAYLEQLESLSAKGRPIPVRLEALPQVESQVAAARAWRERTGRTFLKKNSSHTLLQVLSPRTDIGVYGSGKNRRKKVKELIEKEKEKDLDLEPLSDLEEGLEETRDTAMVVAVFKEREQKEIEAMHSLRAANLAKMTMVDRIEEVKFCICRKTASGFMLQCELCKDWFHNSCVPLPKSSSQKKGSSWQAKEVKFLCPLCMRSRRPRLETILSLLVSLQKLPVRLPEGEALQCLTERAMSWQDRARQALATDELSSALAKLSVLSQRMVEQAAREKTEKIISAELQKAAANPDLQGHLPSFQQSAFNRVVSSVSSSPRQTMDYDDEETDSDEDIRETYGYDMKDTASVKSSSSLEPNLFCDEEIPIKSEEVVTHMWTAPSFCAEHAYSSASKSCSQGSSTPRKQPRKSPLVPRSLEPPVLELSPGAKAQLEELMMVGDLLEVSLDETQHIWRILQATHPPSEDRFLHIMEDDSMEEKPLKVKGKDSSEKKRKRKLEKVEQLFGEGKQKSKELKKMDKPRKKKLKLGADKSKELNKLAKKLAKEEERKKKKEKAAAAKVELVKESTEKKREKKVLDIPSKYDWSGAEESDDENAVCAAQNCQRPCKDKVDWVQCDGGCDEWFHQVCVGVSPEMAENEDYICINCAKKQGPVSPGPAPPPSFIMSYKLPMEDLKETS

The first experiment addresses T1, KDM5A (Homo sapiens, UniProt P29375).
T1 construct: Full length recombinant Flag tagged KDM5A protein was purified from Sf9 insect cells; Flag; made in house; host or cells: Sf9 insect cells
As to the kind of experiment: KDM5A Demethylase Assay (TR-FRET Assay-B). The experiment is classed as biochemical. Conditions: full length recombinant Flag tagged KDM5A, 2 nM, TrisCl pH 7.4, 3.0 μM α-ketoglutarate, read-out: B KDM5A HTRF (IC50).
Experimental: Full length recombinant Flag tagged KDM5A protein was purified from Sf9 insect cells. The demethylation reaction buffer contained 50 mM TrisCl pH 7.4, 0.01% Triton X-100, 0.025 mg/mL BSA, 1 mM ascorbate, 2 mM TCEP, 3.0 μM α-ketoglutarate, and 50 μM Fe2(NH4)2(SO4)2. […] After a one hour incubation assays were read on a Perkin-Elmer Envision equipped with a laser source and appropriate filters.
Take `COc1c(C)[nH]c2c(-c3cnn(-c4ccccn4)c3)cnn2c1=O` [Example 40, 6-methoxy-5-methyl-3-(1-(pyridin-2-yl)-1H-pyrazol-4-yl)pyrazolo[1,5-a]pyrimidin-7(4H)-one]: the half-inhibitory concentration (IC50) amounted to 101 nM.
The same measure, in the same setting: as for `CCc1c(CO)[nH]c2c(-c3cnn(-c4ccccn4)c3)cnn2c1=O` [Example 41, 6-ethyl-5-(hydroxymethyl)-3-(1-(pyridin-2-yl)-1H-pyrazol-4-yl)pyrazolo[1,5-a]pyrimidin-7(4H)-one], the figure is 4.1 nM; as for `Cc1[nH]c2c(-c3cnn(-c4ccccn4)c3)cnn2c(=O)c1Cl` [Example 43, 6-chloro-5-methyl-3-[1-(2-pyridyl)pyrazol-4-yl]-4H-pyrazolo[1,5-a]pyrimidin-7-one], 60.5 nM.
Same read-out and setting: as for `Cc1cc(=O)n2ncc(-n3cnc(-c4ccccn4)c3)c2[nH]1` [Example 49, 5-Methyl-3-(4-(pyridin-2-yl)-1H-imidazol-1-yl)pyrazolo[1,5-a]pyrimidin-7(4H)-one], the figure is 43.7 nM; as for `Cc1[nH]c2c(-c3cnn(-c4ccccn4)c3)cnn2c(=O)c1C` [Example 61, 5,6-dimethyl-3-[1-(2-pyridyl)pyrazol-4-yl]-4H-pyrazolo[1,5-a]pyrimidin-7-one], 66.1 nM; as for `Cc1[nH]c2c(-c3cnn(-c4ccccn4)c3)cnn2c(=O)c1F` [Example 62, 6-fluoro-5-methyl-3-[1-(2-pyridyl)pyrazol-4-yl]-4H-pyrazolo[1,5-a]pyrimidin-7-one], 212 nM.
Same read-out and setting: as for `CCc1[nH]c2c(-c3cnn(-c4ccccn4)c3)cnn2c(=O)c1CC` [Example 63, 5,6-diethyl-3-[1-(2-pyridyl)pyrazol-4-yl]-4H-pyrazolo[1,5-a]pyrimidin-7-one], the figure is 169 nM; as for `Cc1[nH]c2c(-c3cnn(-c4ccccn4)c3)cnn2c(=O)c1C#N` [Example 64, 5-methyl-7-oxo-3-[1-(2-pyridyl)pyrazol-4-yl]-4H-pyrazolo[1,5-a]pyrimidine-6-carbonitrile], 830 nM.
On to `CCc1c(C)[nH]c2c(-c3cnn(-c4ccc(C)cn4)c3)cnn2c1=O` [Example 65, 6-ethyl-5-methyl-3-[1-(5-methyl-2-pyridyl)pyrazol-4-yl]-4H-pyrazolo[1,5-a]pyrimidin-7-one], for which the IC50 was 5.1 nM.

The next experiment addresses T1, KDM5A. In words: KDM5A Demethylase Assay (MassSpec Assay-A). In kind it is biochemical. The conditions noted are these: full length recombinant Flag tagged KDM5A, 20 nM; MassSpec readout; biotinylated H3K9me1 peptide 4.0 μM; read-out: A KDM5A MS (IC50). As to the method: Full length recombinant Flag tagged KDM5A protein was purified from […] insect cells. The demethylation reaction buffer contained 50 mM TrisCl pH 7.4, 0.01% Triton X-100, 0.025 mg/mL BSA, 1 mM ascorbate (Cat# A4034, Sigma Aldrich), 2 mM TCEP (Cat# D9779, Sigma Aldrich), 2.0 μM α-ketoglutarate (# K2010, Sigma Aldrich) and 50 μM Fe2(NH4)2(SO4)2 (Cat# F1543, Sigma Aldrich). In a 25 μL demethylation reaction system, 20 nM recombinant KDM5A and was incubated with compounds for 10 minutes in the above buffer, and then […] (# K2010, Sigma Aldrich), 4.0 μM biotinylated H3K9me1 peptide (1-21 aa), and Fe2(NH4)2(SO4)2 were added to initiate the reaction. (All reagent concentrations are final reagent concentrations.) Reactions were incubated for 30 minutes at room temperature, and then quenched by addition of an equal volume of 1% formic acid. After termination, plates were sealed and frozen at −80° C. for analysis.
On to `CCc1c(C)[nH]c2c(-c3cnn(-c4nccc(C)n4)c3)cnn2c1=O` [Example 1], for which the IC50 was determined as 26.3 nM.
For the molecule `CCc1c(C)[nH]c2c(-n3cnc(-c4cccnc4)c3)cnn2c1=O` [Example 45, 6-ethyl-5-methyl-3-(4-(pyridin-3-yl)-1H-imidazol-1-yl)pyrazolo[1,5-a]pyrimidin-7(4H)-one], the IC50 is 6320 nM.
With `CCc1c(-c2ccccc2)[nH]c2c(-n3cnc(-c4ccccn4)c3)cnn2c1=O` [Example 47, 6-ethyl-5-phenyl-3-(4-(pyridin-2-yl)-1H-imidazol-1-yl)pyrazolo[1,5-a]pyrimidin-7(4H)-one], the IC50 was found to be 574 nM.
The same measure, in the same setting: then `CCc1c(C)[nH]c2c(-n3cnc(-c4ccccn4)c3)cnn2c1=O` [Example 48, 6-Ethyl-5-methyl-3-(4-(pyridin-2-yl)-1H-imidazol-1-yl)pyrazolo[1,5-a]pyrimidin-7(4H)-one], with 70.5 nM.
On the same count and under the same terms, as for `CCc1[nH]c2c(-n3cnc(-c4ccccn4)c3)cnn2c(=O)c1CC` [Example 51, 5,6-Diethyl-3-(4-(pyridin-2-yl)-1H-imidazol-1-yl)pyrazolo[1,5-a]pyrimidin-7(4H)-one], the figure is 70.8 nM; as for `Cc1c(-c2ccccc2)[nH]c2c(-n3cnc(-c4ccccn4)c3)cnn2c1=O` [Example 52, 6-Methyl-5-phenyl-3-(4-(pyridin-2-yl)-1H-imidazol-1-yl)pyrazolo[1,5-a]pyrimidin-7(4H)-one], 470 nM; as for `CCc1c(C)[nH]c2c(-n3cnc(-c4cscn4)c3)cnn2c1=O` [Example 53, 6-Ethyl-5-methyl-3-(4-(thiazol-4-yl)-1H-imidazol-1-yl)pyrazolo[1,5-a]pyrimidin-7(4H)-one], 453 nM.
Turning to `CCc1c(C)[nH]c2c(-n3cnc(-c4ncccn4)c3)cnn2c1=O` [Example 54, 6-ethyl-5-methyl-3-(4-(pyrimidin-2-yl)-1H-imidazol-1-yl)pyrazolo[1,5-a]pyrimidin-7(4H)-one], the IC50 stood at 538 nM.
Turning to `CCc1c(C)[nH]c2c(-n3cnc(C(N)=O)c3)cnn2c1=O` [Example 55, 1-(6-Ethyl-5-methyl-7-oxo-4,7-dihydropyrazolo[1,5-a]pyrimidin-3-yl)-1H-imidazole-4-carboxamide], the IC50 stood at 94.5 nM.
On to `CCc1c(C)[nH]c2c(-c3nnc(C(N)=O)o3)cnn2c1=O` [Example 56, 5-(6-Ethyl-5-methyl-7-oxo-4,7-dihydropyrazolo[1,5-a]pyrimidin-3-yl)-1,3,4-oxadiazole-2-carboxamide], for which the IC50 was 276 nM.
In the case of `CCc1c(C)[nH]c2c(-c3nnc(-c4ccccn4)o3)cnn2c1=O` [Example 57, 6-Ethyl-5-methyl-3-(5-(pyridin-2-yl)-1,3,4-oxadiazol-2-yl)pyrazolo[1,5-a]pyrimidin-7(4H)-one], the IC50 stood at 268 nM.
Same read-out and setting: as for `CCc1c(C)[nH]c2c(-c3nc(C(N)=O)no3)cnn2c1=O` [Example 58, 5-(6-Ethyl-5-methyl-7-oxo-4,7-dihydropyrazolo[1,5-a]pyrimidin-3-yl)-1,2,4-oxadiazole-3-carboxamide], the figure is 332 nM; as for `CCc1c(C)[nH]c2c(-c3nc(-c4ccccn4)no3)cnn2c1=O` [Example 59, 6-Ethyl-5-methyl-3-(3-(pyridin-2-yl)-1,2,4-oxadiazol-5-yl)pyrazolo[1,5-a]pyrimidin-7(4H)-one], 518 nM; as for `CCc1c(C)[nH]c2c(-c3cc(-c4ccccn4)on3)cnn2c1=O` [Example 60, 6-Ethyl-5-methyl-3-(5-(pyridin-2-yl)isoxazol-3-yl)pyrazolo[1,5-a]pyrimidin-7(4H)-one], 4000 nM.
In the case of `CCc1c(C)[nH]c2c(-c3cnn(-c4nccc5ccccc45)c3)cnn2c1=O` [Example 66, 6-ethyl-3-(1-(isoquinolin-1-yl)-1H-pyrazol-4-yl)-5-methylpyrazolo[1,5-a]pyrimidin-7(4H)-one], the IC50 was 861 nM.
As to `CCc1c(C)[nH]c2c(-c3cnn(-c4ncccc4C)c3)cnn2c1=O` [Example 67, 6-ethyl-5-methyl-3-(1-(3-methylpyridin-2-yl)-1H-pyrazol-4-yl)pyrazolo[1,5-a]pyrimidin-7(4H)-one], the IC50 was found to be 363 nM.
In the case of `CCc1c(C)[nH]c2c(-c3cnn(-c4cc5ccccc5cn4)c3)cnn2c1=O` [Example 68, 6-ethyl-3-(1-(isoquinolin-3-yl)-1H-pyrazol-4-yl)-5-methylpyrazolo[1,5-a]pyrimidin-7(4H)-one], the IC50 turned out to be 36.9 nM.
The same measure, in the same setting: then `CCc1c(C)[nH]c2c(-c3cnn(-c4cccnn4)c3)cnn2c1=O` [Example 69, 6-ethyl-5-methyl-3-(1-(pyridazin-3-yl)-1H-pyrazol-4-yl)pyrazolo[1,5-a]pyrimidin-7(4H)-one], with 233 nM.
Still for that read-out and setting: then `CCc1c(C)[nH]c2c(-c3cnn(-c4cccc(OC)n4)c3)cnn2c1=O` [Example 70, 6-ethyl-3-(1-(6-methoxypyridin-2-yl)-1H-pyrazol-4-yl)-5-methylpyrazolo[1,5-a]pyrimidin-7(4H)-one], with 3730 nM.
For the molecule `CCc1c(C)[nH]c2c(-c3cnn(-c4cc(C)ccn4)c3)cnn2c1=O` [Example 71, 6-ethyl-5-methyl-3-(1-(4-methylpyridin-2-yl)-1H-pyrazol-4-yl)pyrazolo[1,5-a]pyrimidin-7(4H)-one], the IC50 was found to be 26.3 nM.
Still for that read-out and setting: as for `CCc1c(C)[nH]c2c(-c3cnn(-c4cnccn4)c3)cnn2c1=O` [Example 72, 6-ethyl-5-methyl-3-(1-(pyrazin-2-yl)-1H-pyrazol-4-yl)pyrazolo[1,5-a]pyrimidin-7(4H)-one], the figure is 76 nM; as for `Cc1[nH]c2c(-n3cnc(-c4ccccn4)c3)cnn2c(=O)c1C` [Example 73, 5,6-dimethyl-3-(4-(pyridin-2-yl)-1H-imidazol-1-yl)pyrazolo[1,5-a]pyrimidin-7(4H)-one], 53.7 nM.
On the same count and under the same terms, as for `CCc1c(C)[nH]c2c(-n3cnc(C(=O)NC)c3)cnn2c1=O` [Example 74, 1-(6-ethyl-5-methyl-7-oxo-4,7-dihydropyrazolo[1,5-a]pyrimidin-3-yl)-N-methyl-1H-imidazole-4-carboxamide], the figure is 996 nM.
For the molecule `CCc1c(C)[nH]c2c(-n3cnc(C(=O)N(C)C)c3)cnn2c1=O` [Example 75, 1-(6-ethyl-5-methyl-7-oxo-4,7-dihydropyrazolo[1,5-a]pyrimidin-3-yl)-N,N-dimethyl-1H-imidazole-4-carboxamide], the IC50 came out at 178 nM.
Consider `CCc1c(C)[nH]c2c(-n3ccnc3C)cnn2c1=O` [Example 77, 6-ethyl-5-methyl-3-(2-methyl-1H-imidazol-1-yl)pyrazolo[1,5-a]pyrimidin-7(4H)-one], for which the IC50 came to 3380 nM.
As for `CCc1c(-c2ccccc2)[nH]c2c(-n3ccnc3)cnn2c1=O` [Example 79, 6-ethyl-3-(1H-imidazol-1-yl)-5-phenylpyrazolo[1,5-a]pyrimidin-7(4H)-one], the IC50 amounted to 43200 nM.
Same read-out and setting: as for `CCc1c(C)[nH]c2c(-n3cnc(I)c3)cnn2c1=O` [Example 80, 6-ethyl-3-(4-iodo-1H-imidazol-1-yl)-5-methylpyrazolo[1,5-a]pyrimidin-7(4H)-one], the figure is 29400 nM.
